Several values for one entry are separate records, joined by “and”; a condition that tells them apart may be missing. Equal entries are not always repeated.
Tested on: HIV transcripts (TAR, LLTR, Pol, PolyA, TatRev)
Assay: Cell-associated HIV transcripts (RT-ddPCR) 6 days after anti-CD3/CD28 activation of PBMCs from ART-suppressed PWH
Assay type: cell-based
Details: for LLTR HIV transcripts (DMSO αCD3/28 = 100): 6 days after αCD3/28 activation, each column one participant; for Pol / PolyA / TAR / TatRev: DMSO αCD3/28 = 100, Fig 4A; for LLTR/TAR / PolyA/LLTR / TatRev/PolyA: DMSO+CD3/28 = 1, Fig 4B, C and D
Experimental: Next, we evaluated the ability of the candidate LPAs to sustain the inhibitory effects during a prolonged ex vivo culture. To this end, PBMCs were cultured in the presence of individual drugs in DMSO or in DMSO alone as control, activated (anti-CD3/CD28), and harvested after 6 days. […] However, we decided to test the drug on day 6 because extra cells were available from some study participants.
Each drug was tested in PBMCs from at least 6 ART-suppressed study participants (except for KRIBB11, n = 5). PBMCs were aliquoted into wells at 6 × 10^6 cells/well. After activation, the cells were cultured with antiretrovirals in the presence of individual drugs in DMSO or DMSO alone as control. All conditions were tested in the presence of CD3/28 T cell–activating beads, except for the unactivated DMSO condition. After 6 days, total cellular RNA was extracted, and the progression through different stages of HIV transcription was quantified by measuring the levels of initiated (TAR), 5′ elongated (LLTR), midtranscribed/unspliced (Pol), completed (PolyA), and multiply spliced (TatRev) HIV transcripts. (A) The levels of all HIV transcripts were normalized to 1 μg of total cellular RNA and expressed as a percentage of the activated DMSO control (% of activated DMSO). Medians are shown as well as the individual values per study participant in different colors. (B–D) The effect of each drug on HIV transcriptional progression after activation was analyzed by the ratio of one HIV transcript to another. Ratios are independent of HIV infection frequency or normalization to cell numbers. Shown are the proportion of (B) all HIV transcripts that are elongated (LLTR/TAR), (C) elongated HIV transcripts that are completed (PolyA/LLTR), and (D) completed transcripts that are multiply spliced (TatRev/PolyA). Medians and IQR are presented, along with the individual values per study participant in different colors. P values were calculated using Wilcoxon’s signed-rank test: *P < 0.05.
PBMCs were isolated from fresh venous blood from 16 ART-suppressed HIV-infected study participants using Ficoll density gradient centrifugation. The cells were seeded at 6 × 10^6 cells/well and cultured with antiretrovirals (nevirapine and indinavir) to prevent new infection. On the next day, PBMCs were activated with anti-CD3/CD28–coated beads (Invitrogen) in the presence of 20 U/mL IL-2 and individual drugs in DMSO or DMSO alone as a control. Since we were limited in the PBMC yield per study participant, different study participants were used for different experiments (such as the initial screen, dose response, different time points, and studies in activated vs. unstimulated cells). In addition, the yields of PBMCs were sometimes insufficient to test all drugs for a given question or experiment.
For quantification of cell-associated HIV transcripts, PBMCs were harvested either after 24 hours or after 6 days. The cell viabilities were measured by trypan blue staining; then the cells were pelleted by centrifuging at 300g for 6 minutes and stored at –80°C. For quantification of virion-associated HIV RNA, cell culture supernatant was collected from 6 × 10^6 PBMCs that were treated and activated for 6 days as described above. Residual cells and cellular debris were subsequently removed from the supernatant by differential centrifugation (300g for 6 minutes, then 20,000g for 10 minutes), and the supernatant was stored at –80°C.
Total cellular DNA and RNA were extracted in parallel using Trireagent (Molecular Research Center) according to the manufacturer’s instructions, except for study participants 2147 and 2461 (Figure 4), for whom DNA and RNA were extracted using the QIAGEN AllPrep DNA/RNA/miRNA Universal Kit with on-column DNase I treatment of the RNA and the manufacturer’s modification to enhance recovery of short transcripts.

Compound: CO[C@H]([C@@H](C)[C@H]1O[C@]1(C)C[C@H](C)/C=C/C=C(\C)[C@H]1O[C@@H](CC(=O)O)CC[C@@H]1C)[C@@H](C)O [herboxidiene]
- LLTR HIV transcripts (DMSO αCD3/28 = 100) (5nM): 64.2 and 58.48 and 54.61 and 276.32 and 371.71 and 49.79 and 55 and 16.86
- Pol (participant 150b): 43.29
- PolyA (participant 150b): 23.53
- TAR (participant 150b): 92.09
- TatRev (participant 150b): 2.69
- LLTR/TAR (participant 150b): 0.5407
- PolyA/LLTR (participant 150b): 0.4726
- TatRev/PolyA (participant 150b): 0.11
- Pol (participant 1379): 47.94
- PolyA (participant 1379): 28.08
- TAR (participant 1379): 40.01
- TatRev (participant 1379): 171.43
- LLTR/TAR (participant 1379): 1.462
- PolyA/LLTR (participant 1379): 0.4801
- TatRev/PolyA (participant 1379): 6.105
- Pol (participant 2027): 133.33
- PolyA (participant 2027): 36.92
- TAR (participant 2027): 82.42
- TatRev (participant 2027): 0
- LLTR/TAR (participant 2027): 0.6673
- PolyA/LLTR (participant 2027): 0.6713
- Pol (participant 2147a): 105.88
- PolyA (participant 2147a): 21.76
- TAR (participant 2147a): 362.23
- TatRev (participant 2147a): 28.42
- LLTR/TAR (participant 2147a): 0.1772
- PolyA/LLTR (participant 2147a): 0.339
- TatRev/PolyA (participant 2147a): 0.3013
- Pol (participant 2161): 169.45
- PolyA (participant 2161): 268.67
- TAR (participant 2161): 215.96
- TatRev (participant 2161): 176.87
- LLTR/TAR (participant 2161): 1.7212
- PolyA/LLTR (participant 2161): 0.72
- TatRev/PolyA (participant 2161): 0.6583
- Pol (participant 2256): 18.46
- PolyA (participant 2256): 16.27
- TAR (participant 2256): 31.94
- TatRev (participant 2256): 1.4
- LLTR/TAR (participant 2256): 0.5278
- PolyA/LLTR (participant 2256): 0.9648
- PolyA (participant 2461): 1692.31
- TAR (participant 2461): 52.19
- LLTR/TAR (participant 2461): 5.294
- PolyA/LLTR (participant 2461): 6.125
- LLTR/TAR (participant 2747): 0
- Pol (participant 5557): 23.16
- PolyA (participant 5557): 23.33
- TAR (participant 5557): 83.93
- TatRev (participant 5557): 0
- LLTR/TAR (participant 5557): 0.6507
- PolyA/LLTR (participant 5557): 0.4272

Compound: CC(C)[C@]12O[C@H]1[C@@H]1O[C@]13[C@]1(O[C@H]1C[C@H]1C4=C(CC[C@@]13C)C(=O)OC4)[C@@H]2O [triptolide]
- LLTR/TAR (participant 150b): 0.3514
- LLTR/TAR (participant 2147b): 1.135
- LLTR/TAR (participant 2750): 14.8232

Compound: mithramycin A
- LLTR/TAR (participant 150b): 3.173
- PolyA/LLTR (participant 150b): 0.3062
- TatRev/PolyA (participant 150b): 1.15
- LLTR/TAR (participant 1379): 7.408
- PolyA/LLTR (participant 1379): 0.07562
- TatRev/PolyA (participant 1379): 0
- LLTR/TAR (participant 1713): 1.88
- PolyA/LLTR (participant 1713): 1.25
- TatRev/PolyA (participant 1713): 0
- LLTR/TAR (participant 2147b): 0.4766
- PolyA/LLTR (participant 2147b): 0.7007
- TatRev/PolyA (participant 2147b): 0
- LLTR/TAR (participant 2256): 1.969
- PolyA/LLTR (participant 2256): 0
- LLTR/TAR (participant 2750): 4.292
- PolyA/LLTR (participant 2750): 1.638
- TatRev/PolyA (participant 2750): 0.3964
- LLTR/TAR (participant 5557): 0.2056
- PolyA/LLTR (participant 5557): 46.0561
- TatRev/PolyA (participant 5557): 3.456

Compound: C=CCNC1=C2C[C@@H](C)C[C@H](OC)[C@H](O)[C@@H](C)/C=C(\C)[C@H](OC(N)=O)[C@@H](OC)/C=C\C=C(/C)C(=O)NC(=CC1=O)C2=O [tanespimycin]
- LLTR/TAR (participant 150b): 1.555
- PolyA/LLTR (participant 150b): 0.0721
- TatRev/PolyA (participant 150b): 1.52
- LLTR/TAR (participant 1379): 1.931
- PolyA/LLTR (participant 1379): 0
- LLTR/TAR (participant 1713): 0.63
- PolyA/LLTR (participant 1713): 0.35
- LLTR/TAR (participant 2147b): 1.469
- PolyA/LLTR (participant 2147b): 0
- LLTR/TAR (participant 2256): 1.634
- PolyA/LLTR (participant 2256): 0.2174
- TatRev/PolyA (participant 2256): 3.43
- LLTR/TAR (participant 2750): 1.458
- PolyA/LLTR (participant 2750): 1.811
- TatRev/PolyA (participant 2750): 0
- LLTR/TAR (participant 5557): 1.09
- PolyA/LLTR (participant 5557): 0.1459
- TatRev/PolyA (participant 5557): 0

Compound: CNc1ccc([N+](=O)[O-])c(Nc2ccc3[nH]ncc3c2)n1 [KRIBB11]
- LLTR HIV transcripts (DMSO αCD3/28 = 100) (2.5μM): 71.6 and 44.44 and 38.82 and 82.14 and 98.47
- Pol (participant 2027): 73.68
- PolyA (participant 2027): 106.67
- TAR (participant 2027): 139.39
- TatRev (participant 2027): 11.11
- LLTR/TAR (participant 2027): 0.5893
- PolyA/LLTR (participant 2027): 1.299
- TatRev/PolyA (participant 2027): 0.1042
- Pol (participant 2147a): 33.33
- PolyA (participant 2147a): 22.8
- TAR (participant 2147a): 563.24
- TatRev (participant 2147a): 46.99
- LLTR/TAR (participant 2147a): 0.1271
- PolyA/LLTR (participant 2147a): 0.3184
- TatRev/PolyA (participant 2147a): 1.2464
- Pol (participant 2256): 169.23
- PolyA (participant 2256): 89.76
- TAR (participant 2256): 111.27
- TatRev (participant 2256): 84.19
- LLTR/TAR (participant 2256): 0.8849
- PolyA/LLTR (participant 2256): 0.9116
- TatRev/PolyA (participant 2256): 1.489
- PolyA (participant 2461): 176.92
- TAR (participant 2461): 67.9
- LLTR/TAR (participant 2461): 0.5717
- PolyA/LLTR (participant 2461): 4.558
- Pol (participant 2747): 8.97
- PolyA (participant 2747): 19.67
- TAR (participant 2747): 56.38
- TatRev (participant 2747): 30
